Experimental findings from ChEMBL document CHEMBL1134818, “A designed antagonist of the thyroid hormone receptor” (Bioorg Med Chem Lett, 2001) are described below.

For assay [1], the target named is T1, Thyroid hormone receptor alpha (Homo sapiens, UniProt P10827).
T1 sequence (P10827 whole entry): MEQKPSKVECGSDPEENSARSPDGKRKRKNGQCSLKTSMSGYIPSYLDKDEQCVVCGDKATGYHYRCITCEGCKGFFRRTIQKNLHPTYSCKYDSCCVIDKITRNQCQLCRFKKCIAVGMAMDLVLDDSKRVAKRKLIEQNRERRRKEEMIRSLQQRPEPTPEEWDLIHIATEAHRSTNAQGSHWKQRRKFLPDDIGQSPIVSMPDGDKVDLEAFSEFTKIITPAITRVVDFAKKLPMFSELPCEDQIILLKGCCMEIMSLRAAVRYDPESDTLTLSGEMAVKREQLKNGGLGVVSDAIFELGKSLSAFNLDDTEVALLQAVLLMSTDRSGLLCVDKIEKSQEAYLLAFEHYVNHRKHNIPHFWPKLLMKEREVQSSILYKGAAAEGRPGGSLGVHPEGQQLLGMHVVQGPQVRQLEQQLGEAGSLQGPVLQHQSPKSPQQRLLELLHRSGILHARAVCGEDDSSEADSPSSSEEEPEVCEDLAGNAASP
The experiment in a line: Binding affinity towards thyroid hormone receptor (hTR alpha 1).

The target of assay [2] is T2, Thyroid hormone receptor beta (Homo sapiens, UniProt P10828).
T2 sequence (P10828 whole entry): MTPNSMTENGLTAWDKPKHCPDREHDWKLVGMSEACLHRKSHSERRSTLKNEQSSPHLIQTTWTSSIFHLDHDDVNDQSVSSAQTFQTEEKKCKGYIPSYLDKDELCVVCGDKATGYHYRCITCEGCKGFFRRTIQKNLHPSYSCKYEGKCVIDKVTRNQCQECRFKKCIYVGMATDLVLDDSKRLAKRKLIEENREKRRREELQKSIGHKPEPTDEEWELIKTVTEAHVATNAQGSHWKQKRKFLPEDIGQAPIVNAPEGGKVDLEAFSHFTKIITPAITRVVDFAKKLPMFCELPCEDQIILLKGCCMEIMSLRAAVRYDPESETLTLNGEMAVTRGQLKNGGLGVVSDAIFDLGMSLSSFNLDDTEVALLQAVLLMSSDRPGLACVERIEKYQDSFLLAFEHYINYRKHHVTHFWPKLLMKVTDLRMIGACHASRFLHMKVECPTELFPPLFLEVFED
As to the kind of experiment: Binding affinity towards thyroid hormone receptor (hTR beta 1).

Each structure is given as a SMILES string. pKd: −log10 of the molar value.

What is called pKd is the negative decadic logarithm of the Kd, by convention in mol/L. A higher pKd goes with a small Kd. As to `CCCCN(C)C(=O)CCCCCC/C=C\CCC(c1ccc(O)c(C(C)C)c1)c1c(C)cc(OCC(=O)O)cc1C` (stereo not given), the pKd in assay [1] was 6.62; in assay [2] it was 6.14.

For the compound `CCCCN(C)C(=O)CCCCCCCCCCC(c1ccc(O)c(C(C)C)c1)c1c(C)cc(OCC(=O)O)cc1C` (stereo not given), the pKd in assay [1] was 6.95; in assay [2] it was 6.83.

For the compound `COc1ccc(C(c2ccc(O)c(C(C)C)c2)c2c(C)cc(OCC(=O)O)cc2C)c(OC)c1` (stereo not given), the pKd in assay [1] is 5.85; in assay [2], 5.38.

`C=CCC(c1ccc(O)c(C(C)C)c1)c1c(C)cc(OCC(=O)O)cc1C` (stereo not given): the pKd was 6.37 in assay [1] and 7.05 in assay [2].

On to `Cc1cc(OCC(=O)O)cc(C)c1C(CCCO)c1ccc(O)c(C(C)C)c1` (stereo not given), for which the pKd was 5.85 in assay [1] and 5.44 in assay [2].
